Source: patent publication US10550107B2, “Process for the preparation of N-[4-[(3-chloro-4-fluoro phenyl) amino]-7-[[(3s-tetrahydro-3-furanyl]oxy]-6-quinazolinyl]-4-(dimethyl amino)-(2E)-2-butenamide (2Z)-2-butenedioate (1:2) and its polymorphs thereof” (MSN LABORATORIES PRIVATE LIMITED, priority 2015, dated 2020)

Experiment: Polymorphic stability of crystalline Form-R
Assay type: physicochemical
Conditions: at various conditions (not specified)

Q: Which “stability of the crystalline form / conversion to other crystalline forms” value does the source give for CN(C)C/C=C/C(=O)Nc1cc2c(Nc3ccc(F)c(Cl)c3)ncnc2cc1O[C@H]1CCOC1.O=C(O)/C=C\C(=O)O [Form-R, N-[4-[(3-chloro-4-fluorophenyl)amino]-7-[[(3S)-tetrahydro-3-furanyl]oxy]-6-quinazolinyl]-4-(dimethylamino)-(2E)-2-butenamide (2Z)-2-butenedioate (1:2)] here?
A: The value was “stable at various conditions and does not convert to any of the other crystalline forms”.
